Laboratory results from article PMC6478789, “A chemical toolbox for the study of bromodomains and epigenetic signaling” (Nature Communications, 2019).
Read-outs that look alike come from different tables or passages of the source.

Columns and labels:
MDA-MB-436 cells = assay: Confluency with BRPF inhibitors and BAY-876; assay type: cell-based, human; details: 3 μM, 7 days
Protocol: Graph indicates mean, error bars denote s.d. from eight wells (from two independent assays) and p-value was computed using the Benjamini-Hochberg t test; ***p < 0.001. d Immunoblot validation of BRPF knockdown in MDA-MB-436 cells. e Quantitative real-time PCR (RT-qPCR) validation of BRPF knockdown in MDA-MB-436 cells. […] Raw data images are available in Supplementary Fig. 4
TNBC cell lines were seeded in sterile, transparent 384-well plates at 500 cells per well in 50 µl media. Chemical probes were delivered in dimethyl sulfoxide (DMSO). Cell confluency at 7 days was evaluated using an Incucyte ZOOM live cell imaging device (Essen Bioscence) and analyzed with the Incucyte ZOOM (2016A) software based on phase contrast image.

CBP/p300 [1] = biological target: CBP/p300; set-up: method as in ref 10 (suppl.); details: ref 10 (suppl.); read-out: TR-FRET (KD (nM) column); cited from earlier work
CBP/p300 over BRD4 = details: cited from earlier work
CBP/p300 [2] = biological target: CBP/p300; set-up: method as in ref 10 (suppl.); details: ref 10 (suppl.); read-out: BRET (KD (nM) column); cited from earlier work

| SMILES | synergy with BAY-876 (MDA-MB-436 cells) | Kd (CBP/p300 [1]) | selectivity over BRD4 for CBP/p300 (CBP/p300 over BRD4) | Kd (CBP/p300 [2]) |
| --- | --- | --- | --- | --- |
| COc1ccccc1C(=O)Nc1cc2c(cc1N1CCCC1)n(C)c(=O)n2C [PFI-4] | no significant effect |  |  |  |
| CNC(=O)N1CCc2c(c(N3CCCc4cc(-c5cnn(C)c5)c(C(F)F)cc43)nn2C2CCOCC2)C1 [GNE-781] |  | 0.94 nM | 650 fold | 6.2 nM |
